Calls of active or inactive are those of the source.
Legend:
CAAX prenyl protease 2 [1] = target: CAAX prenyl protease 2 (Saccharomyces cerevisiae S288c, UniProt Q03530); assay type: biochemical
CAAX prenyl protease 1 = CAAX prenyl protease 1 (Saccharomyces cerevisiae S288c, UniProt P47154); assay: Ste24 protease inhibitors, dose response, biochemical, S. cerevisiae, plate reader, cherry-pick (AID 488815)
Prothrombin = Prothrombin (Homo sapiens, UniProt P00734); assay: Thrombin 1536 HTS Dose Response Confirmation. [Related pubchem assays: 1046 (Thrombin 1536 HTS; hits were confirmed in this assay)]; assay type: functional
CAAX prenyl protease 2 [2] = target: T1, CAAX prenyl protease 2 (Homo sapiens, UniProt Q9Y256); assay: human Rce1 protease inhibitors, dose response, biochemical, yeast membranes, quenched-peptide fluorescence, cherry-pick (AID 588849)
T1 sequence (Q9Y256 whole entry): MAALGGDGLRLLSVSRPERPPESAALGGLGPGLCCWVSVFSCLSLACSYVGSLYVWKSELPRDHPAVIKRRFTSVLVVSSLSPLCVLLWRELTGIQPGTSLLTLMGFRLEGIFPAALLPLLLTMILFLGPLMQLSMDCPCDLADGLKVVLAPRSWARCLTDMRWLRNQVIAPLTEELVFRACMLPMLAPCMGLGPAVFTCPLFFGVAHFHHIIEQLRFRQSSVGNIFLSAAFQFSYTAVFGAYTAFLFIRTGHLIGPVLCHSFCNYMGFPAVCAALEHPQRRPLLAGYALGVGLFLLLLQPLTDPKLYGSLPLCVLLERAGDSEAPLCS

[3] = target: T2, Serine/threonine-protein phosphatase (Candida dubliniensis (strain CD36 / CBS 7987 / NCPF 3949 / NRRLY-17841) (Yeast), UniProt B9W6M3); assay: calcineurin pathway inhibitors in yeast reporter, dose response, S. cerevisiae, CDRE-lacZ, luminescence, secondary (AID 2388); assay type: functional, cell-based;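 further: yeast reporter cells carrying a calcineurin-responsive lacZ construct stimulated with calcium chloride; luminescent beta-galactosidase reporter signal in whole cells rather than isolated phosphatase activity; potency for inhibition where a drop in reporter signal means calcineurin blockade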
T2 sequence (B9W6M3 whole entry): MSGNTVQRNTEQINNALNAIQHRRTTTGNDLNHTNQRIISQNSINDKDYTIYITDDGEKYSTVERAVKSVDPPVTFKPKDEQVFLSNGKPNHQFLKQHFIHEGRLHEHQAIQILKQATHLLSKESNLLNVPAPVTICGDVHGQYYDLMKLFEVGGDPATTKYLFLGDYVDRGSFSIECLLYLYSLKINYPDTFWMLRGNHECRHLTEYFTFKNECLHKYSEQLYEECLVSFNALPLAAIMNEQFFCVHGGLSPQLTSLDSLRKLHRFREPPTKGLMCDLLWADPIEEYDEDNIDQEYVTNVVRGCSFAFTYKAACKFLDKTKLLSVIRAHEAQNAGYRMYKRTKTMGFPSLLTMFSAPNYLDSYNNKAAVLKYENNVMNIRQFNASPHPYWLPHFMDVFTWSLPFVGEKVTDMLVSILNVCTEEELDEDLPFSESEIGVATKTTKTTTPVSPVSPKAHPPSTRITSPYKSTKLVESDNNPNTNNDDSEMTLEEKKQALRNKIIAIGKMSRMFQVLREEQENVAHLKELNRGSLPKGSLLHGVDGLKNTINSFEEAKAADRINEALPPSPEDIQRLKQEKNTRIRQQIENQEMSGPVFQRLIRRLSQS

[4] = C. albicans growth with fluconazole, confirmation, fluorescence, retest (AID 2467); assay type: functional, cell-based
[5] = NIH-3T3 fibroblast cytotoxicity, dose response, cytotoxicity control, cell-based, fluorescence, Alamar Blue, secondary assay (AID 2327); assay type: functional;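 further: NIH-3T3 mouse fibroblasts cultured with fluconazole at 8 µg/mL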
ORF 73 = ORF 73 (Human herpesvirus 8, UniProt O40947); assay: inhibitors of C-LANA binding to LBS DNA, dose response, biochemical, fluorescence polarization, cherry-picked samples (AID 504725); set-up: species or system Human gammaherpesvirus 8;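 further: fluorescence polarization of a labeled DNA duplex reporting LANA DNA binding; potency is for inhibitors that block LANA binding to the DNA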
[6] = target: UDP-galactopyranose mutase (Mycobacterium tuberculosis, UniProt P9WIQ1); assay: Inhibitors of Mycobacterium tuberculosis UDP-galactopyranose mutase (UGM) enzyme Measured in Biochemical System Using Plate Reader - 2105-02_Inhibitor_Dose_CherryPick_Activity. [Related pubchem assays (depositor defined):AID504439]
[7] = target: ATP-dependent molecular chaperone HSP82 (Candida albicans (strain WO-1) (Yeast), UniProt C4YTQ8); assay: loss of DOC-induced GRE-beta-galactosidase reporter signal, dose response, Hsp90 inhibitor project, S. cerevisiae, luminescence (AID 2400); assay type: functional, cell-based;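 further: beta-galactosidase luminescence from glucocorticoid response element reporter as proxy for Hsp90 function; inhibitor potency where signal loss means Hsp90 inhibition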
[8] = target: G-protein coupled receptor 55 (Homo sapiens, UniProt Q9Y2T6); assay: GPR55 antagonists blocking LPI-driven arrestin recruitment, primary screen, imaging, U2OS, beta-arrestin-GFP, LPI agonist (AID 2013); assay type: functional;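 further: antagonist potency measured as reduced agonist-driven arrestin aggregation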
Estrogen receptor = target: T3, Estrogen receptor (Homo sapiens, UniProt P03372);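 further: potency for inhibiting coactivator peptide recruitment to the receptor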
T3 sequence (P03372 whole entry): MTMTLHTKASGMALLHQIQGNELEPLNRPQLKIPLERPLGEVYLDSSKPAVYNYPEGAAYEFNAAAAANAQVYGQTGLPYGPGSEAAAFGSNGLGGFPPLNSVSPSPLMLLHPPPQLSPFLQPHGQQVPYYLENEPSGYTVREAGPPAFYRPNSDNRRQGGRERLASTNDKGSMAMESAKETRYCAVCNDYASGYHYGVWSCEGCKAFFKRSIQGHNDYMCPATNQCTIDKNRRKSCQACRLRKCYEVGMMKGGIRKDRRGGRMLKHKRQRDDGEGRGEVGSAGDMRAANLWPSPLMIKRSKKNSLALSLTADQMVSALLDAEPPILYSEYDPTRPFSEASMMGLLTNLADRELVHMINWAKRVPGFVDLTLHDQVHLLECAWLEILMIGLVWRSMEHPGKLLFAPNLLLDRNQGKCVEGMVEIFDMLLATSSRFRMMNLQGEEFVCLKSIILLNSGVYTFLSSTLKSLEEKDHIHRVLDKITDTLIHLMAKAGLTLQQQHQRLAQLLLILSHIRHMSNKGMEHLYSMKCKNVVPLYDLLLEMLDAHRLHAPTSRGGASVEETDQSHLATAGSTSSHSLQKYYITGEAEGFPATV

[9] = target: T4, Zinc finger protein mex-5 (Caenorhabditis elegans, UniProt Q9XUB2); assay: MEX-5/TCR-2 RNA interaction inhibitors, dose response, biochemical, C. elegans, fluorescence polarization (AID 1960)
T4 sequence (Q9XUB2 whole entry): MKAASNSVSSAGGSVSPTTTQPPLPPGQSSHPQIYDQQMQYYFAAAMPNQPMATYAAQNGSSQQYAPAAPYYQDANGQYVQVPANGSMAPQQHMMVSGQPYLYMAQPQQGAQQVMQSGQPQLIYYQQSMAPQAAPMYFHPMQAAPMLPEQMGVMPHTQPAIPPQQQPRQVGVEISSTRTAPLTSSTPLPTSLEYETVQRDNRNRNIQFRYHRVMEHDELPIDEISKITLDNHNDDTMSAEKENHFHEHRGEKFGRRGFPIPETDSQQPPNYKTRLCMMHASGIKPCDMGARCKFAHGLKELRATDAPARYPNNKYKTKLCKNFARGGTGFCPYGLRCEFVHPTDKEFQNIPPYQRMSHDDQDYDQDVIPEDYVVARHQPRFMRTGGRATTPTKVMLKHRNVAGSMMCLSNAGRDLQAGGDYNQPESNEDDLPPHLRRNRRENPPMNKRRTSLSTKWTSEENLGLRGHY

[10] = target: T5, RNA-binding protein pos-1 (Caenorhabditis elegans, UniProt G5EF15); assay: inhibitors of POS-1/mex-3 RNA binding, dose response, biochemical, fluorescence polarization (AID 1964);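 further: purified POS-1 fused to maltose binding protein made in E. coli; potency of compounds blocking POS-1 binding to fluorescent RNA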
T5 sequence (G5EF15 whole entry): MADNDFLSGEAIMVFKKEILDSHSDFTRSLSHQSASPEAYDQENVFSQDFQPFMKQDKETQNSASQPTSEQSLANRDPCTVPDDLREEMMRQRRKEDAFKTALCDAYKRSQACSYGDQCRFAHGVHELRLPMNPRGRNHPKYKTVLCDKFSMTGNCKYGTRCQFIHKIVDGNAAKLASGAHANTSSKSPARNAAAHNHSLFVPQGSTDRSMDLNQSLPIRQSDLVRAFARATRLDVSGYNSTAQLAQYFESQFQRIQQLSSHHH

Estrogen receptor beta [11] = target: T6, Estrogen receptor beta (Homo sapiens, UniProt Q92731);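 further: recombinant ER-beta bound to coactivator SRC1 peptide in presence of estradiol agonist; inhibitors block coactivator peptide binding and lower the FRET signal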
Troponin, cardiac muscle = Troponin, cardiac muscle (Homo sapiens, UniProt P19429+P45379+P63316); assay: Fluorescence-based biochemical high throughput dose response assay for activators of the calcium sensitivity of cardiac Regulated Thin Filaments (RTF). [Related pubchem assays (depositor defined):AID493008, AID493018, AID504382, AID504383]; assay type: protein-complex assay
Estrogen receptor beta [12] = target: T6, Estrogen receptor beta; assay: ERβ–SRC-3 coactivator interaction inhibitors, confirmation, orthogonal assay, biochemical, ELISA, streptavidin-HRP readout (AID 1060)
[13] = target: T7, Voltage-gated N-type calcium channel alpha-1B subunit/Amyloid beta A4 precursor protein-binding family A member 1 (Homo sapiens, UniProt Q00975+Q02410); assay type: protein assay
[14] = cytotoxicity in KRAS-transformed pancreatic duct cells, primary screen, cell-based, fluorescence, HTS (AID 431); assay type: functional; conditions: Homo sapiens;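 further: cell line used: HPDE-C7K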
[15] = target: Induced myeloid leukemia cell differentiation protein Mcl-1 (Homo sapiens, UniProt Q07820); assay type: functional
[16] = target: T7, Voltage-gated N-type calcium channel alpha-1B subunit/Amyloid beta A4 precursor protein-binding family A member 1; assay type: protein assay; remark: listed apart in the source
Ephrin type-A receptor 4 = Ephrin type-A receptor 4 (Mus musculus, UniProt Q03137); assay: inhibitors of EphA4 binding to KYL peptide, primary screen, biochemical, colorimetric, mouse EphA4 (AID 689); assay type: functional
[17] = cytotoxicity in HPDE-C7 cells, cell-based, fluorescence, HTS (AID 430); assay type: functional; conditions: Homo sapiens
INS1 = assay: beta cell apoptosis inhibitors, cytokine rescue, dose response, luminescence, retest (AID 449756); assay type: functional, cell-based; conditions: Rattus norvegicus;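 further: cell death triggered by IL-1 beta plus TNF-alpha plus IFN-gamma mixture; protective hits raise ATP signal compared with cytokine alone wells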
[18] = target: Intestinal-type alkaline phosphatase (Mus musculus, UniProt P24822); assay: PubChem AID 488875; assay type: functional
[19] = target: T8, Intestinal-type alkaline phosphatase (Homo sapiens, UniProt P09923); assay: human intestinal alkaline phosphatase activators, dose response, biochemical, luminescence, uHTS hits (AID 463120); assay type: functional
[20] = target: T9, Alkaline phosphatase, tissue-nonspecific isozyme (Homo sapiens, UniProt P05186); assay: TNAP enzyme activators, dose response, selectivity assay for human IAP activator project, biochemical, TNAP isozyme, human IAP uHTS hits (AID 488886); assay type: functional;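 further: potency of compounds raising TNAP activity as a selectivity check on IAP activators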
T9 sequence (P05186 whole entry): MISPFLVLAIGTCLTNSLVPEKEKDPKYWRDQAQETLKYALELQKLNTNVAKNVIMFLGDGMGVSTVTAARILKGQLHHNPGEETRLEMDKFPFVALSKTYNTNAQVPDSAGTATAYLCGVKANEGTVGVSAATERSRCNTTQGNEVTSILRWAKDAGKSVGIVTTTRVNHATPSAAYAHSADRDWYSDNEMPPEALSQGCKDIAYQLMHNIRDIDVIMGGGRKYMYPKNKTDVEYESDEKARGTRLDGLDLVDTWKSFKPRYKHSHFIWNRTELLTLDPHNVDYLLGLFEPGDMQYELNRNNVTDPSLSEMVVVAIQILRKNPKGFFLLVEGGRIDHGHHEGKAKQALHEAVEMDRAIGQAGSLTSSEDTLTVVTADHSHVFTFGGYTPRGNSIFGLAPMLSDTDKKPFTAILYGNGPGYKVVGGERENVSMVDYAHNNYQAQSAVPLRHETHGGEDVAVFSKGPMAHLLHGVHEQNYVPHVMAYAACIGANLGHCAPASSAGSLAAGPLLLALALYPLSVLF

[21] = target: Heat shock protein HSP 90-alpha (Homo sapiens, UniProt P07900); assay type: functional, organism-based
[22] = target: T8, Intestinal-type alkaline phosphatase; assay: human IAP activators, dose response, biochemical, luminescent, uHTS hits, set 2 (AID 488817); assay type: functional;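 further: potency of activators that raise enzyme activity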

T8 sequence (P09923 whole entry): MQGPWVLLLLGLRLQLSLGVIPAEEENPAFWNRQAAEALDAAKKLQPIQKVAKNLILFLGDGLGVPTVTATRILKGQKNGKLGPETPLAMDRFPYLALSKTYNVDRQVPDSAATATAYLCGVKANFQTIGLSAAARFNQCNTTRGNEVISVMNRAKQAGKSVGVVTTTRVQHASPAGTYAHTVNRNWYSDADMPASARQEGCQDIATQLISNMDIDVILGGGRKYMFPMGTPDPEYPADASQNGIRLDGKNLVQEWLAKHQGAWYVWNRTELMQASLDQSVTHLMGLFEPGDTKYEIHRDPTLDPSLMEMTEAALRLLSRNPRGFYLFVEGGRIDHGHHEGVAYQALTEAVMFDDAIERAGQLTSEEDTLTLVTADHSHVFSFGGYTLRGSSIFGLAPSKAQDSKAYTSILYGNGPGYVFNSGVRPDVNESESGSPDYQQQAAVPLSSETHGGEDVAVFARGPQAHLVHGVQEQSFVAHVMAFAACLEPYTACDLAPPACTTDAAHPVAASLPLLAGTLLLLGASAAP
Sequence of Intestinal-type alkaline phosphatase (Mus musculus, UniProt P24822) (P24822 whole entry): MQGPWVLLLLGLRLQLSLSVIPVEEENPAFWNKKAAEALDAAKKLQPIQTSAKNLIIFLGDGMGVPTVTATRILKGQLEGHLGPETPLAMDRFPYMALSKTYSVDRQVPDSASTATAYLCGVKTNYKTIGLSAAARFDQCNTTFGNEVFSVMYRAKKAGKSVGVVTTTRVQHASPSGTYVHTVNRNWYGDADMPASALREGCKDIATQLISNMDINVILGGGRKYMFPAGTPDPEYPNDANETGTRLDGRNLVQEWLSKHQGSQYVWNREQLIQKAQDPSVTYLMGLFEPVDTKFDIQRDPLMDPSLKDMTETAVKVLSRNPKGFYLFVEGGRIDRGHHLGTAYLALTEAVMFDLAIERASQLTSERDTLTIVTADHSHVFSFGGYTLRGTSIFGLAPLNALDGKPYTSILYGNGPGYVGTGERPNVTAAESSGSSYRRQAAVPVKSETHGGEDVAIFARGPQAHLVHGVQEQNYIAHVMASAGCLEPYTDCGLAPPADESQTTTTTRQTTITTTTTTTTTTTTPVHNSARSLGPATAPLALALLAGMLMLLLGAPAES
Sequence of CAAX prenyl protease 1 (P47154 whole entry): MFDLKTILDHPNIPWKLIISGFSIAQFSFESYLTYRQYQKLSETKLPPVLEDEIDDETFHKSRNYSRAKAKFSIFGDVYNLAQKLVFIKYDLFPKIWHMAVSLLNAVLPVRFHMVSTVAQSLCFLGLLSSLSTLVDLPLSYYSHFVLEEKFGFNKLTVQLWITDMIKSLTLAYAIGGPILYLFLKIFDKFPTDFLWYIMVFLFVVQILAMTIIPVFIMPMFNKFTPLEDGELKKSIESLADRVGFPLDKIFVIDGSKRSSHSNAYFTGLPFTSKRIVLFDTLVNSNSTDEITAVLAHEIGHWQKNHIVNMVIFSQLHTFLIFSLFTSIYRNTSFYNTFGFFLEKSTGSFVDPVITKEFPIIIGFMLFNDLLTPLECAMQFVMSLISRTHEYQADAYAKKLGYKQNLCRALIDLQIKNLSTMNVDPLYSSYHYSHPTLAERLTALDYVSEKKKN
T6 sequence (Q92731 whole entry): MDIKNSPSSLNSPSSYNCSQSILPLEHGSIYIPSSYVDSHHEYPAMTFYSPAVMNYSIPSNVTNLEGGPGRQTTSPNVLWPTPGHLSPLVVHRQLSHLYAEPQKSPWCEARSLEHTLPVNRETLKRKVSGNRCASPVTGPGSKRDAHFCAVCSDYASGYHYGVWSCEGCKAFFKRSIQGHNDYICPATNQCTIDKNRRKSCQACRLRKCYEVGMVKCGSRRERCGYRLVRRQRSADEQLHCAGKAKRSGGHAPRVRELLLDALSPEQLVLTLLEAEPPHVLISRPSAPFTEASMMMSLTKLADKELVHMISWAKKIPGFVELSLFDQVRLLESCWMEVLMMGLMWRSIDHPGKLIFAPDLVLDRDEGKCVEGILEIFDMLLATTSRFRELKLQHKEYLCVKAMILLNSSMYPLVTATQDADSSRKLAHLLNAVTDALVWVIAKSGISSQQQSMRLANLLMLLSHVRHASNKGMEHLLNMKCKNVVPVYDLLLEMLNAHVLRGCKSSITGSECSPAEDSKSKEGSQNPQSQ
Sequence of ORF 73 (O40947 whole entry): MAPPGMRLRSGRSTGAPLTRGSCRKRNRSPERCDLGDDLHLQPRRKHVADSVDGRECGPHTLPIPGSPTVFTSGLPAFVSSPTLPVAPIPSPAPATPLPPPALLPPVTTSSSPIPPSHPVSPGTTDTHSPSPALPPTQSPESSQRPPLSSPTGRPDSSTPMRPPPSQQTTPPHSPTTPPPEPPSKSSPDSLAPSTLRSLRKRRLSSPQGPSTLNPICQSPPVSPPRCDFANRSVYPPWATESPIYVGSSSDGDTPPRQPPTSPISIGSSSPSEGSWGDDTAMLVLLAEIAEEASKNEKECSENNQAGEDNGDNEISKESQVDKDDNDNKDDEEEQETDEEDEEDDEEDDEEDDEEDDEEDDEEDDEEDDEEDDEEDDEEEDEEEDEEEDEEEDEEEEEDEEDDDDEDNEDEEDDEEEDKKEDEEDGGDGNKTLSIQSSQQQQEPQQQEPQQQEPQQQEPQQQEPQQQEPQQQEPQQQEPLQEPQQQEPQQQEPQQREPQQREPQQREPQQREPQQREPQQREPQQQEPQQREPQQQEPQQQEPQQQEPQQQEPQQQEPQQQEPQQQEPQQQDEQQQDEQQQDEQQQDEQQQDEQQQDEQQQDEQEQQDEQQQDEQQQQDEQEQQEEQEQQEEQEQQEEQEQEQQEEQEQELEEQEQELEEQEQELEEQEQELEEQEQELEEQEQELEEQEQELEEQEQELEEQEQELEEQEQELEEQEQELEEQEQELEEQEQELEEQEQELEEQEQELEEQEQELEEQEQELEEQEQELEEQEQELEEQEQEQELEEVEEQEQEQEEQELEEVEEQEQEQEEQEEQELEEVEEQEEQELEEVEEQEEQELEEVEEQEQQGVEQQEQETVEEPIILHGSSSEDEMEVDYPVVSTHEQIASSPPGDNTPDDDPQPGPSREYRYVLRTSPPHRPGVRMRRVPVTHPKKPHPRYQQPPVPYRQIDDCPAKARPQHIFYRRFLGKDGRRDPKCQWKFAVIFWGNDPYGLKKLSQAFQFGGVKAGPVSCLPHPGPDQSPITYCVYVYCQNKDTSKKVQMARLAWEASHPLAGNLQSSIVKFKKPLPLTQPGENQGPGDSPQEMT
Sequence of Induced myeloid leukemia cell differentiation protein Mcl-1 (Q07820 whole entry): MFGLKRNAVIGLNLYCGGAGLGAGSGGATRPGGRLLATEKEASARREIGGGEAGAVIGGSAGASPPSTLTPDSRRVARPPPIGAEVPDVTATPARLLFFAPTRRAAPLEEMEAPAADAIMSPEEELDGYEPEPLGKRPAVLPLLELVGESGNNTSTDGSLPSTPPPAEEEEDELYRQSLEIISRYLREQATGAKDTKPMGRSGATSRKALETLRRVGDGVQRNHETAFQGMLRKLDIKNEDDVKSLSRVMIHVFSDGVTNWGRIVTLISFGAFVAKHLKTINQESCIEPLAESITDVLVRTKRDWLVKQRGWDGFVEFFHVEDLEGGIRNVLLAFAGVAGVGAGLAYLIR
Sequence of UDP-galactopyranose mutase (P9WIQ1 whole entry): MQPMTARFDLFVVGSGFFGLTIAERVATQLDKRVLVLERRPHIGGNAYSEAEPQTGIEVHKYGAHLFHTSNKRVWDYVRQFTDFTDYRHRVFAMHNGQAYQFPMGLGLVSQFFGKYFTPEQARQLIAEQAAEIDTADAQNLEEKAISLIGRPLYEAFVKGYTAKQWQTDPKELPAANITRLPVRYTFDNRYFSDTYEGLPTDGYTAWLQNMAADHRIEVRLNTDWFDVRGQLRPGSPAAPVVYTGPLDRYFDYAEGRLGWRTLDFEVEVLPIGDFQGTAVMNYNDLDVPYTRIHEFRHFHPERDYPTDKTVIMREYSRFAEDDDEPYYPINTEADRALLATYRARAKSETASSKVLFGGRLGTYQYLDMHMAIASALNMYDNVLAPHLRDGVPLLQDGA
Sequence of G-protein coupled receptor 55 (Q9Y2T6 whole entry): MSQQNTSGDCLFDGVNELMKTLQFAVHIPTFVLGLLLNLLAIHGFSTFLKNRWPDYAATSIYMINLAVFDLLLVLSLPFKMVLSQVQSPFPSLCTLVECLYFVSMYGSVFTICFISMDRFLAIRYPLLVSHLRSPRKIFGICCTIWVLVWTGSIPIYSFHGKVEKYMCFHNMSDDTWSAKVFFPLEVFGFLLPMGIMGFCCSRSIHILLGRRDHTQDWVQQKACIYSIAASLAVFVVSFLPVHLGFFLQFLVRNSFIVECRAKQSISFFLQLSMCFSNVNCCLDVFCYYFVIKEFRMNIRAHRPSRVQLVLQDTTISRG
Sequence of CAAX prenyl protease 2 (Saccharomyces cerevisiae S288c, UniProt Q03530) (Q03530 whole entry): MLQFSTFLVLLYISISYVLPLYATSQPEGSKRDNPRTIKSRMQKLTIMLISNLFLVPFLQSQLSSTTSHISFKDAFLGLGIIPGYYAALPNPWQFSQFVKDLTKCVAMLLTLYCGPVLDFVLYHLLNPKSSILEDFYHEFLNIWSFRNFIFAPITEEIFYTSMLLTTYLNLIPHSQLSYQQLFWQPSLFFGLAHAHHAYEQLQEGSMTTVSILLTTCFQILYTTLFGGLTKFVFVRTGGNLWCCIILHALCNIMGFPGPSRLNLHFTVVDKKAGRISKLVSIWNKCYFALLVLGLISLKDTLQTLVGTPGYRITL

SMILES: COc1ccc(C2c3c(ncn(CCCO)c3=N)Oc3ccc4ccccc4c32)cc1 (stereo unspecified)
- AC50 (CAAX prenyl protease 2 [1]): 5.6 µM (active)
- AC50 (CAAX prenyl protease 1): 8.82 µM (active)

SMILES: CCOC(=O)C1=C(C)OC(N)=C(C#N)C1c1cc2c(cc1[N+](=O)[O-])OCO2 (stereo unspecified)
- IC50 (Prothrombin): 0.915 µM (active)
- AC50 (CAAX prenyl protease 2 [2]): 13.2 µM (active)
- AC50 (CAAX prenyl protease 1): 5.61 µM (active)

SMILES: CCN(CC)c1ccc2cc(S(=O)(=O)c3ccc(C)cc3)c(=O)oc2c1
- EC50 [3]: > 180 µM (inactive)
- EC50 [4]: 0.203 µM (active)
- EC50 [5]: 25.2 µM (active)
- AC50 (ORF 73): 18.4 µM (active)
- AC50 [6]: 63.4 µM (active)
- EC50 [7]: 21.9 µM (active)

SMILES: Cc1ccc(-c2nc(SCC(=O)N(C)C3CCS(=O)(=O)C3)[nH]c2-c2ccc(C)cc2)cc1 (stereo unspecified)
- IC50 [8]: 3.83 µM (active)

SMILES: CC(=O)Nc1ccc(/N=C/c2nc(-c3ccc(C)cc3)oc2O)cc1
- IC50 (Estrogen receptor): 8.2 µM (active)
- EC50 [9]: > 300 µM (inconclusive)
- EC50 [10]: > 300 µM (not active)
- IC50 (Estrogen receptor beta [11]): > 50 µM (not active)
- EC50 (Troponin, cardiac muscle): 11.6 µM (inactive)
- IC50 (Estrogen receptor beta [12]): 21.6 µM (not active)

SMILES: CSc1nc(NCCOCCO)c2sc3nc(-c4ccco4)c4c(c3c2n1)CCC4
- IC50 (Estrogen receptor): > 50 µM (not active)
- IC50 [13]: 14.7 µM (active)
- EC50 [14]: 6.86 µM (active)
- IC50 [15]: 1.92 µM (active)
- IC50 [16]: 1.98 µM (active)
- IC50 (Ephrin type-A receptor 4): > 100 µM (not active)
- EC50 [17]: 8.85 µM (active)

SMILES: Cn1cc(/C=C2\SC(=S)N(NC(=O)c3ccccc3)C2=O)c2ccccc21
- EC50 (Troponin, cardiac muscle): 1.47 µM (active)

SMILES: CC1=NN(c2nc3ccccc3[nH]2)C(=O)/C1=C/N(C)C
- AC50 (INS1): 2.48 µM (active)
- EC50 [18]: > 100 µM (inactive)
- EC50 [19]: 12.3 µM (active)
- EC50 [20]: 11.4 µM (active)
- AC50 [21]: 6.12 µM (active)
- EC50 [22]: 23.2 µM (active)

SMILES: Cc1nn(C)c(C(=O)NN=C(S)NCc2ccccc2)c1Cl
- EC50 [18]: > 100 µM (inactive)
- EC50 [19]: 14.8 µM (active)
- EC50 [20]: 17.3 µM (active)
- EC50 [22]: 17 µM (active)
